The text below walks through data of ChEMBL document CHEMBL2321665, “Treatment of Obesity and Related Disorders with Acetyl-CoA Carboxylase Inhibitors” (ACS Med Chem Lett, 2013).

In experiment [1] the target is Acetyl-CoA carboxylase 2 (Homo sapiens, UniProt O00763). In words: Inhibition of human recombinant ACC2.
Experiment [2] concerns the target Acetyl-CoA carboxylase 1 (Homo sapiens, UniProt Q13085). The experiment is described as follows: Inhibition of human recombinant ACC1.

Sequence of Acetyl-CoA carboxylase 2 (O00763 whole entry): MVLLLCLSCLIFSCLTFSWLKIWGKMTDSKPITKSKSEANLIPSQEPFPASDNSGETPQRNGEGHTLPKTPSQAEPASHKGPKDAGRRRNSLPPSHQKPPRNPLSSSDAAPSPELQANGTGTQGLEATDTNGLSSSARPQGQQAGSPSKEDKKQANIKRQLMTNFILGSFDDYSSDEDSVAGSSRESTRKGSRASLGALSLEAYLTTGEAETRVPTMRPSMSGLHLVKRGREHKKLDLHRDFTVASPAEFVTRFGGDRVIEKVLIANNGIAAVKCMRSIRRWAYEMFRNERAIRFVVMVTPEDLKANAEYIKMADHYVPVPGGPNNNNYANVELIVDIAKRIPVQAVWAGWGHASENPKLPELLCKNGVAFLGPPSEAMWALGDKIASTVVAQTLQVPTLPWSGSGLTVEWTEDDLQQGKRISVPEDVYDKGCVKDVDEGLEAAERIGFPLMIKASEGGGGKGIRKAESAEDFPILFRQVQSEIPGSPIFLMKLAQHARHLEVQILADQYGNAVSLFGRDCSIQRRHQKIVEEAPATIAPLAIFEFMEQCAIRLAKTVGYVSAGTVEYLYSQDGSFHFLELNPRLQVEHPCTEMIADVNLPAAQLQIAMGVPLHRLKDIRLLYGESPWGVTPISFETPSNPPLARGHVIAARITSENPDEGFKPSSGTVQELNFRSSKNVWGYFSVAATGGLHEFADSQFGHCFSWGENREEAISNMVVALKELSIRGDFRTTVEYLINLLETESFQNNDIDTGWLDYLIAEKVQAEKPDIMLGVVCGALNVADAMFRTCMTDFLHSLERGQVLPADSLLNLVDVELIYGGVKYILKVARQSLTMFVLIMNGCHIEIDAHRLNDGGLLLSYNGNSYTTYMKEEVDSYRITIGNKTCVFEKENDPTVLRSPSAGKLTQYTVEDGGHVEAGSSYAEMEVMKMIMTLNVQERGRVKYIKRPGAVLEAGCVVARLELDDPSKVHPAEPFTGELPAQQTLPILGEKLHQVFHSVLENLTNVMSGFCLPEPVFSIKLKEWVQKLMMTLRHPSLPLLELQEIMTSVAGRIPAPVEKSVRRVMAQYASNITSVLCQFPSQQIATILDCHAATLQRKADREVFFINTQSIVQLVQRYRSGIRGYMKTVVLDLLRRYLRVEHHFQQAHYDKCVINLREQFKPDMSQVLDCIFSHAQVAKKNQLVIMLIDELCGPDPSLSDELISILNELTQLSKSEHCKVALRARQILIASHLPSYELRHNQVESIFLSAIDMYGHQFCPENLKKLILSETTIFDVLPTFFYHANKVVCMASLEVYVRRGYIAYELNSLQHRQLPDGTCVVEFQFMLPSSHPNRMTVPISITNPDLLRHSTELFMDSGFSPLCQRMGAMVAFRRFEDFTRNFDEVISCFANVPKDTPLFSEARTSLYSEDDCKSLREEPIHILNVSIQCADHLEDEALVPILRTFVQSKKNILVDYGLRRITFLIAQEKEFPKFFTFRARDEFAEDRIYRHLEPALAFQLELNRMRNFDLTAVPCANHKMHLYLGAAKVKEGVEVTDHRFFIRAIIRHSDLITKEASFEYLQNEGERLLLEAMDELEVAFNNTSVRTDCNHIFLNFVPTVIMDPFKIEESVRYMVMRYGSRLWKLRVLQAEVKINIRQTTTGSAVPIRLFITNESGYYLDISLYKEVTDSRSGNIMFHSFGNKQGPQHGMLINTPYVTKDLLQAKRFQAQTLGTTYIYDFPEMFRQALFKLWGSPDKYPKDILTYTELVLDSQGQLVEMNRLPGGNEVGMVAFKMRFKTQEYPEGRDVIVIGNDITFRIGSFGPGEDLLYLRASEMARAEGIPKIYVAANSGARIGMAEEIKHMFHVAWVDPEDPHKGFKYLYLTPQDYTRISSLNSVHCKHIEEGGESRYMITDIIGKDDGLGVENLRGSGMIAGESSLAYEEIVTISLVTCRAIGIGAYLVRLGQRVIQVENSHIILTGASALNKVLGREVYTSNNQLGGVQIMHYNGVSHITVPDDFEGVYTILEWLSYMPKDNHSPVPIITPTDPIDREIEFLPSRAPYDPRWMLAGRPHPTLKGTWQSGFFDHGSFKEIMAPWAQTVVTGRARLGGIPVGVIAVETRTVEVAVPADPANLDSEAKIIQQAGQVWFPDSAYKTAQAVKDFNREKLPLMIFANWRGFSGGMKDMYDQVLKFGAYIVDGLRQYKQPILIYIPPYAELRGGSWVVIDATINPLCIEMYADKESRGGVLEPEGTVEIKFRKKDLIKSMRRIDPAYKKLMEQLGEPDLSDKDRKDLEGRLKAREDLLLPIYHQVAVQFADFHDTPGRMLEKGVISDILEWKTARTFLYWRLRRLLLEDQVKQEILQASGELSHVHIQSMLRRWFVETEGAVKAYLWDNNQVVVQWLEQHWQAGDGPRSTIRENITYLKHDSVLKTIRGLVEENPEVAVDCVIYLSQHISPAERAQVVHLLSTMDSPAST

On to `CC(C)n1ncc2c1C(=O)CC1(CCN(C(=O)c3ccc4ccc(N)nc4c3)CC1)C2`, for which the 50% inhibitory concentration (IC50) – broadly, the concentration that inhibits the measured activity by half – in experiment [1] came out at 10 nM; in experiment [2], 12 nM.

For `CNc1ccc2ccc(C(=O)N3CCC4(CC3)CC(=O)c3nn(C(C)(C)C)cc3C4)cc2n1`, the IC50 in experiment [1] worked out at 1.3 nM; in experiment [2], 2.2 nM.

With `CC(C)n1ncc2c1C(=O)CC1(CCN(C(=O)c3ccc4[nH]c(C(N)=O)cc4c3)CC1)C2`, the IC50 is 2.9 nM in experiment [1] and 11 nM in experiment [2].

As to `COc1ccc2ncc(C(=O)N3CCC4(CC3)CC(=O)c3c(cnn3C(C)C)C4)cc2c1`, the IC50 in experiment [1] was found to be 2.1 nM; in experiment [2], 5 nM.
